These results are taken from patent US5922580A, “Non-reducing saccharide-forming enzyme, its preparation and uses” (priority 1992, dated 1999).

Series [1] concerns non-reducing saccharide-forming enzyme. Type of series: biochemical, Rhizobium sp. M-11. To be noted: for Formation of novel saccharide from substrate / Percentage of newly-formed saccharide (P I to P V) in reaction product: 20% substrate, 40° C., pH 7.0, 48 hours; for Percentage of remaining substrate in reaction product: non-reducing saccharide-forming enzyme, 48 h, pH 7; for Percentage of newly-formed saccharide (P I to P V) in reaction product: 2 units per g substrate, HPLC. On the procedure: An aqueous solution containing 20% glucose, maltose, maltotriose, maltotetraose, maltopentaose, maltohexaose or maltoheptaose as a substrate was prepared, and mixed with 2 units per g substrate, d.s.b., of the purified enzyme preparation obtained in Experiment 2, and the resultant mixture was subjected to an enzymatic reaction at 40° C. and pH 7.0 for 48 hours. The reaction mixture was desalted and analyzed on high-performance liquid chromatography (HPLC) using "Wakobeads WB-T-330 column", a product of Wako Pure Chemical Industries Ltd., Tokyo, Japan. The HPLC procedure was conducted at an ambient temperature and a flow rate of 0.5 ml/min of water as an eluent, and "RI-8012", a differential refractometer commercialized by Tosho Corporation, Tokyo, Japan, was used for analyzing reaction products.

Series [2] is described as follows: Reducing power by Somogyi-Nelson's method expressed as DE. Type of series: physicochemical. Conditions: for DE: high-purity saccharide preparations of Experiment 4. On the procedure: The reducing powders of these novel saccharides were determined on the Somogyi-Nelson's method and expressed by DE (dextrose equivalent).
Series [3] in a line: Maillard reaction with glycine. Type of series: physicochemical. Conditions: for Coloration degree (480 nm): 1% glycine, 10% saccharide, 50 mM phosphate buffer pH 7.0, 100° C. for 90 min, absorbance in 1-cm cell; for Coloration degree relative to corresponding material maltooligosaccharide: Maillard reaction, 480 nm. On the procedure: As a control, maltotriose, maltotetraose, maltopentaose, maltohexaose and maltoheptaose as a material for the saccharide preparations were similarly treated as above, and measured their absorbances were measured at a wave length of 480 nm.

Series [4] deals with T1, α-glucosidase specimen derived from rice (Oryza sativa subsp. japonica, UniProt Q653V7).
T1 construct: purchased Sigma Chemical Company, St. Louis, USA; host or cells: rice
Briefly: Hydrolysis by α-glucosidase. Type of series: biochemical. Conditions: 50 mM acetate buffer pH 4.0, 37° C., 18 hours. On the procedure:
(§1) The enzymatic reaction with the α-amylase was as follows: Dissolving 10 mg of a substrate in one ml of 50 mM phosphate buffer (pH 6.9), mixing the resultant solution with one unit of the α-amylase, and incubating the resultant mixture at 37° C. for 18 hours. The enzymatic reaction with the α-glucosidase was conducted under the same conditions as in the case of α-amylase except that 50 mM acetate buffer (pH 4.0) was used as a buffer. The enzymatic reaction with the rat intestinal acetone powder was carried out under the same conditions as in the case of α-amylase except that 50 mM maleate buffer (pH 6.0) was used as a buffer.

In series [5] the test system is 7-week old dd-strain mice. Briefly: Acute toxicity test, oral. Type of series: in vivo. To be noted: oral, highest possible doses.
Series [6] concerns the target T2, α-amylase specimen derived from pig pancreas (Sus scrofa, UniProt P00690).
T2 construct: purchased Sigma Chemical Company, St. Louis, USA; host or cells: pig pancreas
T2 sequence (P00690 16-511): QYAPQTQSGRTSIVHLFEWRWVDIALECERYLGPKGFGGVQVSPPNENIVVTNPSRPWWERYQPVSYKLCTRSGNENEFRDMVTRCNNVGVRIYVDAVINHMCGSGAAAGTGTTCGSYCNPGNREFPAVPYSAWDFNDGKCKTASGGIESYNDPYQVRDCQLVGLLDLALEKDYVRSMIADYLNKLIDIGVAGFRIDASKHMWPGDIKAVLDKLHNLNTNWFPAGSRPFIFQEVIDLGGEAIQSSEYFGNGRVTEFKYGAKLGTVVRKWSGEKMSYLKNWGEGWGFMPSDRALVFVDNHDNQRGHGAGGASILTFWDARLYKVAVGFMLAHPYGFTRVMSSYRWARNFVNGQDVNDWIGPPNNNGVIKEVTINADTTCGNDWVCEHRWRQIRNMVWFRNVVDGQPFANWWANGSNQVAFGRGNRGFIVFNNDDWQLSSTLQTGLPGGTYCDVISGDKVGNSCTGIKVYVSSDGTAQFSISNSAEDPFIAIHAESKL
The series is described as follows: Hydrolysis by α-amylase. Type of series: biochemical. Set-up: Saccharide composition of hydrolysate: P I / Saccharide composition of hydrolysate: P II / Saccharide composition of hydrolysate: G3 (maltotriose) / Saccharide composition of hydrolysate: G2 (maltose) / Saccharide composition of hydrolysate: G1 (glucose): unit not given here. Conditions: for Hydrolysis by α-amylase: conclusion from Table 6; for Saccharide composition of hydrolysate: G1 (glucose) / Saccharide composition of hydrolysate: G2 (maltose) / Saccharide composition of hydrolysate: G3 (maltotriose) / Saccharide composition of hydrolysate: P I / Saccharide composition of hydrolysate: P II: α-amylase, 10 mg/ml, pH 6.9, 37° C., 18 hours, HPLC. On the procedure: as §1

In series [7] the test system is rat intestinal acetone powder. The series is described as follows: Hydrolysis by rat intestinal acetone powder. Type of series: in vitro ADME. To be noted: 50 mM maleate buffer pH 6.0, 37° C., 18 hours. How it is done:
as §1

The target in another series is β-amylase (Glycine max, UniProt P10538). The series is described as follows: Hydrolysis by β-amylase. Type of series: biochemical. To be noted: similarly as with glucoamylase.
A further series deals with glucoamylase. The series is described as follows: Enzymatic hydrolysis by glucoamylase. To be noted: for Glucose / Trehalose: 50 mg in 1 ml 50 mM acetate buffer pH 4.5, one unit glucoamylase, 40° C., 6 hours, HPLC; for Molecular ratio (Glucose/Trehalose): glucoamylase hydrolysate. Type of series: biochemical. On the procedure: Fifty mg aliquots of non-reducing saccharides P I, P II, P III, P IV and P V in Experiment 4 were respectively dissolved in one ml of 50 mM acetate buffer (pH 4.5), admixed with one unit of glucoamylase commercialized by Seikagaku-Kogyo Co., Ltd., Tokyo, Japan, to effect enzymatic hydrolysis at 40° C. for 6 hours. The only saccharides detected in every resultant mixture on HPLC analysis were glucose and trehalose.

T1 sequence (Q653V7 34-885): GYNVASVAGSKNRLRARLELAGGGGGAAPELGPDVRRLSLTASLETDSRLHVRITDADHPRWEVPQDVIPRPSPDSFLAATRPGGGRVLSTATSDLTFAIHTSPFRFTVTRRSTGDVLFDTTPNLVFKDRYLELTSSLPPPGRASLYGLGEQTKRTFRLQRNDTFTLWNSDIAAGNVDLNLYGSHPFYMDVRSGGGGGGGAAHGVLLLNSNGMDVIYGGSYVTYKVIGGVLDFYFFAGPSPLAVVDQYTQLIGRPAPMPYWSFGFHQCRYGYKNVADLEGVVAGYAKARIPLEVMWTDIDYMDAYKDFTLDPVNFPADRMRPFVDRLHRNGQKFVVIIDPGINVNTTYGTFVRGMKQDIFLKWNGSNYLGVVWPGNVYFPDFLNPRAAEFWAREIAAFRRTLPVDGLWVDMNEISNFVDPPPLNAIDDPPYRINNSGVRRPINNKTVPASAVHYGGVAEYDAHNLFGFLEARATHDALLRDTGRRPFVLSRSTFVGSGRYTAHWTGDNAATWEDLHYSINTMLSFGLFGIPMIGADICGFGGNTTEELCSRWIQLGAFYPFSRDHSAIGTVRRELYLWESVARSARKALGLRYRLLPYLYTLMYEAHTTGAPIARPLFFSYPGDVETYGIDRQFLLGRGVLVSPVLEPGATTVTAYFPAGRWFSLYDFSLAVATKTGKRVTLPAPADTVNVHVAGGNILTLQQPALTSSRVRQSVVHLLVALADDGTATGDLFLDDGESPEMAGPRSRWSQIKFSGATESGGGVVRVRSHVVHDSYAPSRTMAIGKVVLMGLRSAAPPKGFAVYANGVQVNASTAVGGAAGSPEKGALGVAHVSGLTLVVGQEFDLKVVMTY
Sequence of β-amylase (P10538 whole entry, species assumed): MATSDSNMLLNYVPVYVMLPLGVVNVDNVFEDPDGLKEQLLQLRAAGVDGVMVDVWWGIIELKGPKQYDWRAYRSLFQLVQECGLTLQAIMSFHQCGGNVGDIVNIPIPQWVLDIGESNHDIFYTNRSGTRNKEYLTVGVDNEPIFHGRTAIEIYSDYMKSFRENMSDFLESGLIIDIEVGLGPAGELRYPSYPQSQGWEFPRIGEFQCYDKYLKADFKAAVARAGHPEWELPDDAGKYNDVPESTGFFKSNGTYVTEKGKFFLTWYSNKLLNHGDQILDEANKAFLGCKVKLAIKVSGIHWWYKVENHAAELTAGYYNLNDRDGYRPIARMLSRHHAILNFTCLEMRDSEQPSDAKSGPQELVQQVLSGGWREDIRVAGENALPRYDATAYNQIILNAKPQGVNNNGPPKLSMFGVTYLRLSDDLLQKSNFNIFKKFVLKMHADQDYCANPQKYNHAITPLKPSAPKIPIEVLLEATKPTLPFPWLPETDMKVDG

With `OC[C@H]1O[C@H](O[C@H]2[C@H](O)[C@@H](O)C(O)O[C@@H]2CO)[C@H](O)[C@@H](O)[C@@H]1O` (mixture of isomers) [Maltose], in series [1], the “Formation of novel saccharide from substrate” value is given as “no novel saccharide was formed” and the “Percentage of remaining substrate in reaction product” value (“Percentage of remaining substrate” below) is on record as 100.0%.

Consider `OC[C@H]1O[C@H](O[C@H]2O[C@H](CO)[C@@H](O[C@H]3O[C@H](CO)[C@@H](O[C@H]4O[C@H](CO)[C@@H](O[C@H]5O[C@H](CO)[C@@H](O)[C@H](O)[C@H]5O)[C@H](O)[C@H]4O)[C@H](O)[C@H]3O)[C@H](O)[C@H]2O)[C@H](O)[C@@H](O)[C@@H]1O` [Example A-5], for which the DE of product result in series [2] (products of Examples A) was “lower than 0.2”.

For `OC[C@H]1OC(O)[C@H](O)[C@@H](O)[C@@H]1O` (stereo partly shown) [Glucose], in series [1], the “Formation of novel saccharide from substrate” value was “no novel saccharide was formed” and the “Percentage of remaining substrate” value is given as 100.0%.

For the molecule `OC[C@H]1O[C@H](O[C@H]2[C@H](O)[C@@H](O)[C@@H](O[C@H]3[C@H](O)[C@@H](O)[C@@H](O[C@H]4[C@H](O)[C@@H](O)[C@@H](O[C@H]5[C@H](O)[C@@H](O)[C@@H](O[C@H]6[C@H](O)[C@@H](O)[C@@H](O[C@H]7[C@H](O)[C@@H](O)C(O)O[C@@H]7CO)O[C@@H]6CO)O[C@@H]5CO)O[C@@H]4CO)O[C@@H]3CO)O[C@@H]2CO)[C@H](O)[C@@H](O)[C@@H]1O` (stereo partly shown) [Maltoheptaose], in series [1], the “Percentage of newly-formed saccharide (P I to P V) in reaction product” value (“Percentage … (P I to P V) in reaction product” for short) came to 93.4% and the “Percentage of remaining substrate” value stood at 6.7%. For the same molecule, the “Coloration degree (480 nm)” value in [3] is listed as 0.271.

`OC[C@H]1O[C@H](O[C@H]2[C@H](O)[C@@H](O)[C@@H](O[C@H]3[C@H](O)[C@@H](O)[C@@H](O[C@H]4[C@H](O)[C@@H](O)[C@@H](O[C@H]5[C@H](O)[C@@H](O)[C@@H](O[C@H]6[C@H](O)[C@@H](O)C(O)O[C@@H]6CO)O[C@@H]5CO)O[C@@H]4CO)O[C@@H]3CO)O[C@@H]2CO)[C@H](O)[C@@H](O)[C@@H]1O` (stereo partly shown) [Maltohexaose]: in series [1], the “Percentage … (P I to P V) in reaction product” value is listed as 93.5% and the “Percentage of remaining substrate” value is listed as 6.5%. Besides, the “Coloration degree (480 nm)” value in series [3] was found to be 0.318.

Regarding `OC[C@H]1O[C@H](O[C@H]2[C@H](O)[C@@H](O)[C@@H](O[C@H]3[C@H](O)[C@@H](O)[C@@H](O[C@H]4[C@H](O)[C@@H](O)[C@@H](O[C@H]5[C@H](O)[C@@H](O)C(O)O[C@@H]5CO)O[C@@H]4CO)O[C@@H]3CO)O[C@@H]2CO)[C@H](O)[C@@H](O)[C@@H]1O` (stereo partly shown) [Maltopentaose], in series [1], the “Percentage … (P I to P V) in reaction product” value turned out to be 92.7% and the “Percentage of remaining substrate” value worked out at 7.3%. Moreover, the “Initial reducing power that diminishes by the enzymatic reaction” value in series [1] (substrate of the present enzyme) is given as “about 93%”. Besides, the “Coloration degree (480 nm)” value in [3] turned out to be 0.369.

Take `OC[C@H]1O[C@H](O[C@H]2[C@H](O)[C@@H](O)[C@@H](O[C@H]3[C@H](O)[C@@H](O)[C@@H](O[C@H]4[C@H](O)[C@@H](O)C(O)O[C@@H]4CO)O[C@@H]3CO)O[C@@H]2CO)[C@H](O)[C@@H](O)[C@@H]1O` (stereo partly shown) [Maltotetraose]: in series [1], the “Percentage … (P I to P V) in reaction product” value came out at 85.6% and the “Percentage of remaining substrate” value is 14.4%. For the same molecule, the “Coloration degree (480 nm)” value in [3] was 0.475.

`OC[C@H]1O[C@H](O[C@H]2[C@H](O)[C@@H](O)[C@@H](O[C@H]3[C@H](O)[C@@H](O)C(O)O[C@@H]3CO)O[C@@H]2CO)[C@H](O)[C@@H](O)[C@@H]1O` (stereo partly shown) [Maltotriose]: in series [1], the “Percentage … (P I to P V) in reaction product” value worked out at 35.0% and the “Percentage of remaining substrate” value was found to be 65.0%. In series [3], the “Coloration degree (480 nm)” value came to 0.623.

In [2], `OC[C@H]1O[C@H](O[C@H]2O[C@H](CO)[C@@H](O[C@H]3O[C@H](CO)[C@@H](O)[C@H](O)[C@H]3O)[C@H](O)[C@H]2O)[C@H](O)[C@@H](O)[C@@H]1O` [P I, α-glucosyl trehalose] displayed a DE of 0.83. For the same molecule, in [4], the “Saccharide composition of hydrolysate with α-glucosidase: Glucose” value was 36.5%, the “Saccharide composition of hydrolysate with α-glucosidase: Other saccharides” value stood at 0.5% and the “Saccharide composition of hydrolysate with α-glucosidase: Trehalose” value turned out to be 63.0%. The Death of mice entry in [5] was “no mouse died”. In addition, in series [6], the “Hydrolysis by α-amylase” value is “not substantially hydrolyzed”, the “Saccharide composition of hydrolysate: G1 (glucose)” value amounted to 0, the “Saccharide composition of hydrolysate: G2 (maltose)” value is 0.4 and the “Saccharide composition of hydrolysate: G3 (maltotriose)” value is on record as 2.3. In [6], the “Saccharide composition of hydrolysate: P I” value turned out to be 97.3 and the “Saccharide composition of hydrolysate: P II” value is recorded as 0. For the same molecule, in series [7], the “Saccharide composition of hydrolysate with rat intestinal acetone powder: Glucose” value is 37.2%, the “Saccharide composition of hydrolysate with rat intestinal acetone powder: Other saccharides” value is given as 0.4% and the “Saccharide composition of hydrolysate with rat intestinal acetone powder: Trehalose” value came out at 62.4%. The “Hydrolysis by β-amylase” value at β-amylase was “not hydrolyzed”. Also, in the series on glucoamylase, the Glucose was 36.2%, the Trehalose is 63.8% and the “Molecular ratio (Glucose/Trehalose)” value is recorded as 1.07. Also, in series [3], the “Coloration degree (480 nm)” value is reported as 0.027 and the “Coloration degree relative to corresponding material maltooligosaccharide” value was 3-6%.

In turn, `OC[C@H]1O[C@H](O[C@H]2O[C@H](CO)[C@@H](O[C@H]3O[C@H](CO)[C@@H](O[C@H]4O[C@H](CO)[C@@H](O)[C@H](O)[C@H]4O)[C@H](O)[C@H]3O)[C@H](O)[C@H]2O)[C@H](O)[C@@H](O)[C@@H]1O` [P II, α-maltosyl trehalose] displayed a DE in [2] of 0.35. Besides, in [4], the “Saccharide composition of hydrolysate with α-glucosidase: Glucose” value is reported as 52.1%, the “Saccharide composition of hydrolysate with α-glucosidase: Other saccharides” value was found to be 0.3% and the “Saccharide composition of hydrolysate with α-glucosidase: Trehalose” value is on record as 47.6%. Also, the Death of mice result in series [5] was “no mouse died”. In addition, in series [6], the “Hydrolysis by α-amylase” value is listed as “not substantially hydrolyzed”, the “Saccharide composition of hydrolysate: G1 (glucose)” value is 0, the “Saccharide composition of hydrolysate: G2 (maltose)” value stood at 0.8 and the “Saccharide composition of hydrolysate: G3 (maltotriose)” value was 0.4. In [6], the “Saccharide composition of hydrolysate: P I” value was determined as 0 and the “Saccharide composition of hydrolysate: P II” value worked out at 98.8. In [7], the “Saccharide composition of hydrolysate with rat intestinal acetone powder: Glucose” value was 52.5%, the “Saccharide composition of hydrolysate with rat intestinal acetone powder: Other saccharides” value was found to be 0.4% and the “Saccharide composition of hydrolysate with rat intestinal acetone powder: Trehalose” value turned out to be 47.1%. In addition, on β-amylase, the “Hydrolysis by β-amylase” value is “not hydrolyzed”. In the series on glucoamylase, the Glucose was found to be 52.0%, the Trehalose came to 48.0% and the “Molecular ratio (Glucose/Trehalose)” value came to 2.06. For the same molecule, in series [3], the “Coloration degree (480 nm)” value was found to be 0.018 and the “Coloration degree relative to corresponding material maltooligosaccharide” value is recorded as 3-6%.
